In BindingDB's records for doi:10.1016/0960-894X(95)00473-7 (1995):

Target: 5-hydroxytryptamine receptor 1D (Bos taurus)
Assay: Ability to bind to 5-hydroxytryptamine 1D receptor of calf substantia nigra

| Compound | IC50 [nM] |
| --- | --- |
| c1cnc(NCCCNCC2CCc3ccccc3O2)nc1 (stereo not given) | 1.6 |
| c1ccc2c(c1)CCC(CNCCCNc1cnccn1)O2 (stereo not given) | 10 |
| Clc1ccc(NCCCNCC2CCc3ccccc3O2)nn1 (stereo not given) | 2 |
| c1ccc2c(c1)CCC(CNCCCNc1ccncn1)O2 (stereo not given) | 10 |
| c1ccc2c(c1)CCC(CNCCCNC1=NCCCN1)C2 (stereo not given) | 40 |
| CC(C)NC(=N)NNCCCNCC1CCc2ccccc2O1 (stereo not given) | 3.2 |

Now from value to compound:

| IC50 [nM] | Compound |
| --- | --- |
| 4 | c1ccc2c(c1)CCC(CNCCCNC1=NCCCC1)O2 (stereo not given) |
| 126 | c1ccc2c(c1)CC(CNCCCNC1=NCCCN1)O2 (stereo not given) |
| 158 | O=C1CCCN=C(NCCCNCC2CCc3ccccc3O2)N1 (stereo not given) |
| 3.2 | COc1ccc2c(c1)OC(CNCCCNC1=NCCCN1)CC2 (stereo not given) |
| 7.9 | c1ccc2c(c1)CCC(CNCCCNc1nccs1)O2 (stereo not given) |
| 6.3 | c1ccc2c(c1)CCC(CNCCCNC1=NCCN1)O2 (stereo not given) |
| 7.9 | Fc1ccc2c(c1)CCC(CNCCCNC1=NCCCN1)O2 (stereo not given) |
| 10 | c1ccc2c(c1)CCC(CNCCCCCNC1=NCCCN1)O2 (stereo not given) |
| 0.794 | COc1cccc2c1OC(CNCCCNC1=NCCCN1)CC2 (stereo not given) |
